According to article PMC5607274, “An iterative compound screening contest method for identifying target protein inhibitors using the tyrosine-protein kinase Yes” (Scientific Reports, 2017):

biological target: T1, human recombinant Yes [a.a. 2–543 (end)] (Homo sapiens, UniProt P07947); experiment: ADP-Glo kinase assay, inhibition rates of Yes phosphorylation activity (first and second screening); type: biochemical; details: first screening; mean of n = 4 wells; 10 μmol L−1 compound
T1 construct: human recombinant Yes [a.a; 2–543 (end)]; purchased BPS Bioscience 40488
T1 sequence (P07947 2-543): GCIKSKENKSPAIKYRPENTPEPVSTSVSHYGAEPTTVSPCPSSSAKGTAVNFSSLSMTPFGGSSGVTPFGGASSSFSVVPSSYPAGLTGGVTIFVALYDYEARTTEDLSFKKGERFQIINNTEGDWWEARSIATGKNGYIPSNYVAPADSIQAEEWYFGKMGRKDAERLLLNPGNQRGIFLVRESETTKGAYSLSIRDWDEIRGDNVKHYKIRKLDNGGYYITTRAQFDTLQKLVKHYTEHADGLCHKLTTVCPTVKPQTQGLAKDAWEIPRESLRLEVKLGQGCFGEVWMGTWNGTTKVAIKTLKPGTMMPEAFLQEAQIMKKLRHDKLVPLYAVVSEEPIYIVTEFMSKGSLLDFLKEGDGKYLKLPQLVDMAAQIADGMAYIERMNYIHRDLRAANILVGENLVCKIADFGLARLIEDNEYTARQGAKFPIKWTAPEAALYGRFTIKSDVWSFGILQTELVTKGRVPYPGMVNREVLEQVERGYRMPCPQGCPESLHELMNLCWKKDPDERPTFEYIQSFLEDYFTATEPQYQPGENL
Procedure, shortened: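 ADP-Glo luminescence measured inhibition of human recombinant Yes (a.a. 2–543) phosphorylation activity. In the first screen, each compound ran in 4 wells and inhibition rates were averaged. The second screen retested hits as compounds dissolved from fresh powder.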

With `CN(Cc1ccc(F)cc1F)C(=O)c1cc(-c2ccccc2)nc2c1cnn2Cc1ccncc1` [Compound Z283846026] as the compound, how does the “First screening IR (inhibition rate)” value read?
The value was 11%.

`CCCn1c(=O)[nH]c(=O)c2cc(C(=O)N(CC)Cc3ccc4c(c3)OCO4)cnc21` [Compound Z284160386] was tested. Which “First screening IR (inhibition rate)” value did it give?
The value was 5%.

Which “First screening IR (inhibition rate)” value does the source give for `CC(=O)N1CCc2cc(NC(=O)c3ccccc3SCc3cn4ccccc4n3)ccc21` [Compound Z285525778] here?
Its value is -11%.

How did the “First screening IR (inhibition rate)” value turn out when `CS(=O)(=O)c1ccc(S(=O)(=O)N2CCCC2)cc1` [Compound Z285664940] was run?
Its value is 8%.

`CS(=O)(=O)c1ccccc1S(=O)(=O)N1CCCC1` [Compound Z285664942] was tested. Which “First screening IR (inhibition rate)” value did it give?
Its value is -3%.

How did the “First screening IR (inhibition rate)” value turn out when `CC1CC(C)CN(S(=O)(=O)c2ccccc2S(C)(=O)=O)C1` (stereo not drawn) [Compound Z285665176] was run?
Its value is 55%.

For `CCCN(CCC)S(=O)(=O)c1ccc(S(C)(=O)=O)cc1` [Compound Z285665192], which “First screening IR (inhibition rate)” value is on record?
The value was 14%.

Which “First screening IR (inhibition rate)” value does the source give for `CN(Cc1ccccc1Cl)S(=O)(=O)c1ccccc1S(C)(=O)=O` [Compound Z285666434] here?
The value was -2%.

How did the “First screening IR (inhibition rate)” value turn out when `FC(F)(F)c1ccnc(Nc2ccc3c(c2)OCO3)n1` [Compound Z285674740] was run?
The value was 21%.

For `FC(F)(F)c1ccnc(Nc2ccc(N3CCOCC3)cc2)n1` [Compound Z285679120], which “First screening IR (inhibition rate)” value is on record?
The value was 7%.

Which “First screening IR (inhibition rate)” value does the source give for `FC(F)(F)c1ccnc(Nc2cccc(/C=C/c3ccccn3)c2)n1` [Compound Z285694006] here?
Its value is 12%.

With `O=C1CCCN1c1ccc(Nc2nccc(C(F)(F)F)n2)cc1` [Compound Z285697278] as the compound, how does the “First screening IR (inhibition rate)” value read?
Its value is -12%.

For `FC(F)(F)c1ccnc(Nc2ccc3[nH]ncc3c2)n1` [Compound Z285702074], which “First screening IR (inhibition rate)” value is on record?
The value was 0%.

`FC(F)(F)c1ccnc(Nc2ccc3c(c2)OC2(CCCCC2)O3)n1` [Compound Z285712986] was tested. Which “First screening IR (inhibition rate)” value did it give?
Its value is 4%.

With `CN1C/C(=C/c2ccc(-n3cncn3)cc2)c2nc3ccccc3c(C(=O)O)c2C1` [Compound Z285929216] as the compound, how does the “First screening IR (inhibition rate)” value read?
Its value is 1%.

`CCCN(CCC)S(=O)(=O)c1cccc(S(=O)(=O)N(C)C)c1` [Compound Z285950112] was tested. Which “First screening IR (inhibition rate)” value did it give?
The value was -4%.

Which “First screening IR (inhibition rate)” value does the source give for `CN(C)S(=O)(=O)c1cccc(S(=O)(=O)N(C)C)c1` [Compound Z285953016] here?
Its value is 13%.

With `CNS(=O)(=O)c1cccc(S(=O)(=O)N(C)C)c1` [Compound Z285953204] as the compound, how does the “First screening IR (inhibition rate)” value read?
The value was 2%.

`CC(C)c1cccc(NS(=O)(=O)c2ccc(-n3ncc(Cl)c(Cl)c3=O)cc2)c1` [Compound Z286115224] was tested. Which “First screening IR (inhibition rate)” value did it give?
Its value is 6%.

For `CC1CCCC(C)C12NC(=O)N(CN(C)CC(=O)Nc1ccccc1Cl)C2=O` (stereo not drawn) [Compound Z286135428], which “First screening IR (inhibition rate)” value is on record?
The value was 5%.

Which “First screening IR (inhibition rate)” value does the source give for `CC(c1ccccc1)N1C(=O)C(=O)N(CC(=O)c2cccn2C)C1=O` (stereo not drawn) [Compound Z290228874] here?
The value was -8%.

Which “First screening IR (inhibition rate)” value does the source give for `CC(C)c1ccc(SCc2nc(N)nc(N(C)C)n2)cc1` [Compound Z290622280] here?
The value was 4%.

For `Cc1c(C)c(C)c(C(=O)OCC(=O)NCC(=O)N2CCCC2)c(C)c1C` [Compound Z291423432], which “First screening IR (inhibition rate)” value is on record?
The value was -6%.

`Cc1nn(CCC(=O)O)c2nc(-c3cccs3)cc(C(=O)O)c12` [Compound Z295455358] was tested. Which “First screening IR (inhibition rate)” value did it give?
Its value is -2%.

With `COc1ccc(-n2cc(-c3ccccc3)c3c(=O)[nH]cnc32)cc1` [Compound Z295463532] as the compound, how does the “First screening IR (inhibition rate)” value read?
The value was -5%.

With `CC(NC(=O)C1=NN(c2ccc(F)cc2)C(C(N)=O)C1)c1ccc(F)cc1F` (stereo not drawn) [Compound Z295508576] as the compound, how does the “First screening IR (inhibition rate)” value read?
Its value is 6%.

Which “First screening IR (inhibition rate)” value does the source give for `CCOC(=O)c1cc(-c2ccccc2)nc2[nH]c(=O)c3ccccc3c12` [Compound Z295883036] here?
Its value is 9%.

`O=C(Nc1nc(-c2ccc[nH]2)cs1)c1csc(-c2ccco2)n1` [Compound Z296244664] was tested. Which “First screening IR (inhibition rate)” value did it give?
The value was -6%.

`CC(C)(C)OC(=O)N1CCc2nc(NC(=O)c3csc(-c4ccco4)n3)sc2C1` [Compound Z296452432] was tested. Which “First screening IR (inhibition rate)” value did it give?
The value was -4%.

Which “First screening IR (inhibition rate)” value does the source give for `CC(Sc1n[nH]c(/C=C/c2ccccc2)n1)c1nc(C(C)(C)C)no1` (stereo not drawn) [Compound Z298272042] here?
Its value is 12%.

Which “First screening IR (inhibition rate)” value does the source give for `CS(=O)(=O)c1cccc(S(N)(=O)=O)c1` [Compound Z299680982] here?
Its value is 5%.

`CCC1CCCCN1S(=O)(=O)c1ccc(S(C)(=O)=O)cc1` (stereo not drawn) [Compound Z300098278] was tested. Which “First screening IR (inhibition rate)” value did it give?
Its value is 51%.

With `CN(C)S(=O)(=O)c1ccc(S(C)(=O)=O)cc1` [Compound Z300114426] as the compound, how does the “First screening IR (inhibition rate)” value read?
The value was -8%.

`Cc1ccc(S(=O)(=O)N2CCCN(S(=O)(=O)N3CC(C)CC(C)C3)CC2)cc1` (stereo not drawn) [Compound Z300467774] was tested. Which “First screening IR (inhibition rate)” value did it give?
Its value is 4%.

With `CN(C1CCCCCC1)S(=O)(=O)c1cccc(S(C)(=O)=O)c1` [Compound Z300508876] as the compound, how does the “First screening IR (inhibition rate)” value read?
The value was -7%.

For `CC(C)CN1CCOC(CNC(=O)c2cc3cc(F)ccc3[nH]2)C1` (stereo not drawn) [Compound Z300664804], which “First screening IR (inhibition rate)” value is on record?
Its value is -5%.

`c1ccc(-c2cn3nc(NCCCN4CCOCC4)sc3n2)cc1` [Compound Z300797868] was tested. Which “First screening IR (inhibition rate)” value did it give?
Its value is 11%.

How did the “First screening IR (inhibition rate)” value turn out when `Cc1cc(C)n(CCCNC(=O)c2cc3cc(F)ccc3[nH]2)n1` [Compound Z301214762] was run?
Its value is 8%.

How did the “First screening IR (inhibition rate)” value turn out when `O=c1[nH]cnc2c1c(-c1ccccc1)cn2-c1ccc(F)cc1` [Compound Z314617634] was run?
The value was 7%.

`COc1cccc(/C(O)=C2\C(=O)C(=O)N(CCCn3ccnc3)C2c2cccc([N+](=O)[O-])c2)c1` (stereo not drawn) [Compound Z316156320] was tested. Which “First screening IR (inhibition rate)” value did it give?
The value was -1%.

`CCCOc1ccc(C2/C(=C(\O)c3ccc(F)cc3)C(=O)C(=O)N2CCCn2ccnc2)cc1OC` (stereo not drawn) [Compound Z316169876] was tested. Which “First screening IR (inhibition rate)” value did it give?
The value was 10%.

How did the “First screening IR (inhibition rate)” value turn out when `COc1ccc(/C(O)=C2\C(=O)C(=O)N(CCCn3ccnc3)C2c2ccc(OC(C)C)cc2)cc1` (stereo not drawn) [Compound Z316169960] was run?
The value was 12%.

For `Fc1ccccc1-n1c(SCc2cccnc2)nnc1-c1ccccc1Cl` [Compound Z316264326], which “First screening IR (inhibition rate)” value is on record?
Its value is 1%.

`O=C(Nc1cccc(S(=O)(=O)NC2=NCCCCC2)c1)C1(c2cccc(Cl)c2)CC1` [Compound Z316438002] was tested. Which “First screening IR (inhibition rate)” value did it give?
Its value is 23%.

For `COc1ccc(-c2cc(CSCC(=O)Nc3ccc4c(c3)CCC4)on2)cc1` [Compound Z317186982], which “First screening IR (inhibition rate)” value is on record?
Its value is -4%.

For `COc1ccc(-c2cc(CSCc3nc(N)nc(Nc4ccccc4)n3)on2)cc1` [Compound Z317187130], which “First screening IR (inhibition rate)” value is on record?
The value was -7%.

With `CC(Sc1ncn(-c2ccccc2)n1)c1nc(N)nc(N(C)C)n1` (stereo not drawn) [Compound Z317369924] as the compound, how does the “First screening IR (inhibition rate)” value read?
Its value is -4%.

For `O=C(Nc1nc2c(s1)CN(Cc1ccccc1)CC2)c1cc(-c2ccco2)[nH]n1` [Compound Z317663344], which “First screening IR (inhibition rate)” value is on record?
The value was -10%.

Which “First screening IR (inhibition rate)” value does the source give for `O=C(NCc1ccc(-n2cccn2)nc1)c1cc(-c2ccco2)[nH]n1` [Compound Z317736476] here?
The value was -2%.

With `Cc1ccc(Nc2nccc(C(F)(F)F)n2)cc1S(=O)(=O)N(C)C` [Compound Z318799754] as the compound, how does the “First screening IR (inhibition rate)” value read?
The value was 6%.

How did the “First screening IR (inhibition rate)” value turn out when `N#CCOc1ccc(Nc2nccc(C(F)(F)F)n2)cc1` [Compound Z318833320] was run?
The value was 7%.

For `Nc1c(Cl)cc(Nc2nccc(C(F)(F)F)n2)cc1Cl` [Compound Z318854232], which “First screening IR (inhibition rate)” value is on record?
The value was 7%.

How did the “First screening IR (inhibition rate)” value turn out when `FC(F)(F)c1ccnc(Nc2ccc3nc(N4CCCC4)sc3c2)n1` [Compound Z318995726] was run?
The value was 22%.

For `FC(F)(F)c1ccnc(Nc2ccc(N3CCOCC3)nc2)n1` [Compound Z318998372], which “First screening IR (inhibition rate)” value is on record?
Its value is -7%.

With `FC(F)(F)c1ccnc(Nc2ccc(N3CCCC3)nc2)n1` [Compound Z319012342] as the compound, how does the “First screening IR (inhibition rate)” value read?
Its value is -5%.

`CN(C)c1ccc(Nc2nccc(C(F)(F)F)n2)cn1` [Compound Z319012738] was tested. Which “First screening IR (inhibition rate)” value did it give?
Its value is 2%.

Which “First screening IR (inhibition rate)” value does the source give for `O=C(c1ccc(Nc2nccc(C(F)(F)F)n2)cc1)N1CCCC1` [Compound Z319025642] here?
Its value is -36%.

With `CC(C)c1ccc(C(=O)N2CCN(c3ccc(C#N)cn3)CC2)cc1` [Compound Z319076580] as the compound, how does the “First screening IR (inhibition rate)” value read?
The value was -2%.

For `Cn1ncc2c(N3CCOC(c4ccc(F)cc4)C3)ncnc21` (stereo not drawn) [Compound Z319092016], which “First screening IR (inhibition rate)” value is on record?
Its value is -2%.

Which “First screening IR (inhibition rate)” value does the source give for `O=C(/C=c1/[nH]c(=O)/c(=C\c2ccc(Cl)cc2)s1)c1ccncc1` [Compound Z319403812] here?
The value was 8%.

How did the “First screening IR (inhibition rate)” value turn out when `NC(=O)c1ccc(CN(C2CC2)S(=O)(=O)c2cccc(Cl)c2)cc1` [Compound Z319895028] was run?
The value was -5%.

With `NC(=O)C(NCCCN1CCc2ccccc21)c1ccccc1` (stereo not drawn) [Compound Z320065982] as the compound, how does the “First screening IR (inhibition rate)” value read?
The value was -17%.

`O=C(Nc1ccc(F)cc1)c1nnc(CSc2ncc(-c3ccccc3)[nH]2)s1` [Compound Z325218452] was tested. Which “First screening IR (inhibition rate)” value did it give?
Its value is 0%.

How did the “First screening IR (inhibition rate)” value turn out when `CN(C)c1nc(N)nc(CSCCC(=O)Nc2ccccc2)n1` [Compound Z327260972] was run?
Its value is -8%.

How did the “First screening IR (inhibition rate)” value turn out when `CN(Cc1ccc(C(=O)NCC(F)(F)F)cc1)c1cc(Cl)nc(N)n1` [Compound Z328693166] was run?
Its value is 10%.

Which “First screening IR (inhibition rate)” value does the source give for `CC(c1cc2ccccc2o1)N(C)c1ncnc2c1cnn2C` (stereo not drawn) [Compound Z328694162] here?
Its value is -5%.
